In patent US20260207636A1, “PRODRUGS OF DIMETHOXYPHENYL[…] SEROTONIN RECEPTORS” (priority 2022, published 2026):

Key:
[1] = Compound chemical stability in SGF without pepsin; assay type: physicochemical
Description: (§1) Compounds 1-6 were assessed for their stability in various environments, including phosphate buffered saline (PBS), simulated gastric fluid (SGF) with pepsin, SGF without pepsin, and mouse plasma, using standard stability assay protocols.

[2] = Compound chemical stability in SGF with pepsin; assay type: physicochemical
Description: as §1

[3] = Compound chemical stability in PBS (pH 6.5); assay type: physicochemical
Description: as §1

[4] = Compound mouse plasma stability; assay type: in vitro ADME
Description: as §1

% Remaining ([1]; 0 minutes) | % Remaining ([1]; 30 minutes) | % Remaining ([1]; 60 minutes) | % Remaining ([1]; 120 minutes) | % Remaining ([1]; 240 minutes) | % Remaining ([2]; 0 minutes) | % Remaining ([2]; 30 minutes) | % Remaining ([2]; 60 minutes) | % Remaining ([2]; 120 minutes) | % Remaining ([2]; 240 minutes) | % Remaining ([3]; 0 minutes) | % Remaining ([3]; 30 minutes) | % Remaining ([3]; 60 minutes) | % Remaining ([3]; 120 minutes) | % Remaining ([3]; 240 minutes) | % Remaining ([4]; 0 minutes) | % Remaining ([4]; 30 minutes) | % Remaining ([4]; 60 minutes) | % Remaining ([4]; 120 minutes) | % Remaining ([4]; 240 minutes) | SMILES
100% | 105% | 109% | 106% | 107% | 100% | 105% | 105% | 93% | 106% | 100% | 97% | 94% | 89% | 67% | 100% | 00% | 00% | 00% | 00% | COc1ccc(OC)c(CCN(Cc2cc(C)cc(Cl)c2)C(=O)OCc2oc(=O)oc2C)c1 [Compound 3, (5-Methyl-2-oxo-1,3-dioxol-4-yl)methyl (3-chloro-5-methylbenzyl)(2,5-dimethoxyphenethyl)carbamate]
100% | 98% | 99% | 95% | 96% | 100% | 95% | 97% | 96% | 94% | 100% | 91% | 94% | 93% | 93% | 100% | 85% | 82% | 89% | 86% | COc1ccc(OC)c(CCN(Cc2cc(C)cc(Cl)c2)C(=O)CN)c1 [Compound 6, 2-Amino-N-(3-chloro-5-methylbenzyl)-N-(2,5-dimethoxyphenethyl)acetamide]
100% | 100% | 88% | 94% | 101% | 100% | 97% | 92% | 90% | 80% | 100% | 96% | 99% | 101% | 94% | 100% | 88% | 86% | 91% | 87% | CCOC(=O)N(CCc1cc(OC)ccc1OC)Cc1cc(C)cc(Cl)c1 [Compound 5, Ethyl (3-chloro-5-methylbenzyl)(2,5-dimethoxyphenethyl)carbamate]

Second part, the compound before the results:

SMILES | % Remaining ([1]; 0 minutes) | % Remaining ([1]; 30 minutes) | % Remaining ([1]; 60 minutes) | % Remaining ([1]; 120 minutes) | % Remaining ([1]; 240 minutes) | % Remaining ([2]; 0 minutes) | % Remaining ([2]; 30 minutes) | % Remaining ([2]; 60 minutes) | % Remaining ([2]; 120 minutes) | % Remaining ([2]; 240 minutes) | % Remaining ([3]; 0 minutes) | % Remaining ([3]; 30 minutes) | % Remaining ([3]; 60 minutes) | % Remaining ([3]; 120 minutes) | % Remaining ([3]; 240 minutes) | % Remaining ([4]; 0 minutes) | % Remaining ([4]; 30 minutes) | % Remaining ([4]; 60 minutes) | % Remaining ([4]; 120 minutes) | % Remaining ([4]; 240 minutes)
COc1ccc(OC)c(CCN(Cc2cc(C)cc(Cl)c2)C(=O)OC(C)OC(=O)C(C)(C)C)c1 (stereo not shown) [Compound 4, 1-(((3-Chloro-5-methylbenzyl)(2,5-dimethoxyphenethyl)carbamoyl)oxy)ethyl pivalate] | 100% | 90% | 89% | 96% | 88% | 100% | 93% | 96% | 94% | 105% | 100% | 102% | 101% | 102% | 116% | 100% | 2% | 1% | 00% | 00%
COc1ccc(OC)c(CCN(Cc2cc(C)cc(Cl)c2)Cc2oc(=O)oc2C)c1 [Compound 2, 4-(((3-Chloro-5-methylbenzyl)(2,5-dimethoxyphenethyl)amino)methyl)-5-methyl-1,3-dioxol-2-one] | 100% | 100% | 96% | 86% | 72% | 100% | 93% | 93% | 84% | 70% | 100% | 66% | 43% | 15% | 2% | 100% | 73% | 61% | 41% | 20%
